Results as given in PubChem BioAssay (NCI).
“And” between values parts separate entries of the source, which are not always exact repeats. Equal values may be shown once.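 Assay format: 96-well plates, 48-hour exposure. GI50 marks 50% less growth. TGI: total growth inhibition.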

Key:
Assay in all cases: growth of human tumour cells (NCI), 48 h
SNB-75 CNS = tested on: SNB-75 CNS
ACHN renal = tested on: ACHN renal
NCI-H226 lung = tested on: NCI-H226 lung
HL-60(TB) leukemia = tested on: HL-60(TB) leukemia
U251 CNS = tested on: U251 CNS
SNB-19 CNS = tested on: SNB-19 CNS
SK-MEL-28 melanoma = tested on: SK-MEL-28 melanoma
RPMI-8226 leukemia = tested on: RPMI-8226 leukemia
T-47D breast = tested on: T-47D breast
HS 578T breast = tested on: HS 578T breast

SMILES | TGI (SNB-75 CNS) | TGI (ACHN renal) [µM] | TGI (NCI-H226 lung) [µM] | TGI (HL-60(TB) leukemia) | TGI (U251 CNS) [µM] | TGI (SNB-19 CNS) [µM] | TGI (SK-MEL-28 melanoma) [µM] | GI50 (SNB-75 CNS) [µM] | TGI (RPMI-8226 leukemia) [µM] | GI50 (NCI-H226 lung) [µM] | GI50 (T-47D breast) [µM] | TGI (T-47D breast) [µM] | GI50 (ACHN renal) | GI50 (HS 578T breast) [µM] | TGI (HS 578T breast) [µM] | GI50 (RPMI-8226 leukemia) [µM] | GI50 (U251 CNS) [µM] | GI50 (SNB-19 CNS) [µM] | GI50 (SK-MEL-28 melanoma) [µM] | GI50 (HL-60(TB) leukemia) [µM]
CCOC(=O)c1cccnc1C(OC(C)=O)OC(C)=O | > 100 µM | > 100 | > 100 | > 100 µM | > 100 | > 100 | > 100 |  |  |  |  |  |  |  |  |  |  |  |  | 
CCOP1(=O)C=C(C)C(=C(Cl)Cl)C(C)=C1 (configuration not stated) | > 100 µM | 68.1 | 21.2 | 10.9 µM | 50.9 | 50.3 | > 100 | 30 | 28.4 | 3.44 |  |  |  |  |  |  |  |  |  | 
Cc1ccc(NC(=O)OCC(COc2ccc(Cl)cc2Cl)OC(=O)Nc2ccc(C)cc2)cc1 (configuration not stated) | 68.2 µM | > 100 | > 100 |  | > 100 | > 100 | > 100 |  | > 100 |  |  |  |  |  |  |  |  |  |  | 
CCN(CC)CCn1c2ccccc2c(=O)c2c(OC)ccc(OC)c21 |  | > 100 | 97.3 | > 100 µM | > 100 | > 100 |  |  | > 100 |  |  |  |  |  |  |  |  |  |  | 
CC1CC[P+](c2ccccc2)(c2ccccc2)CC1 | > 100 µM | > 100 | > 100 | > 100 µM | > 100 | > 100 | > 100 |  | > 100 |  |  |  |  |  |  |  |  |  |  | 
C=CCc1c(O)c(C(=O)/C=C/c2ccccc2)c(OC)c2ccoc12 | 6.76 µM | 13.8 | 3.21 |  | 7.46 | 10.7 | 8.28 | 1.39 | 6.76 | 1.48 | 4.11 | 22.4 | 3.79 µM | 3.89 | 33.8 | 1.88 | 2.36 | 2.85 | 2.49 | 
CCOC1CC2OC(=O)C1C=C2C(=O)OC (configuration not stated) |  | > 100 | > 100 | 46.8 µM | > 100 | > 100 | 62.8 |  | 53.9 |  |  |  |  |  |  |  |  |  |  | 
CN(C)c1ccc2nc(CC(O)(C(F)(F)F)C(F)(F)F)ccc2c1 | > 10 µM | > 10 | > 10 |  | > 10 | > 10 | > 10 |  | > 10 |  |  | > 10 |  |  | > 10 |  |  |  |  | 
COc1ccc2nc(NC(=O)C(=O)NNC(=O)c3ccncc3)sc2c1 | > 100 µM | > 100 | > 100 | > 100 µM | > 100 | > 100 | > 100 |  |  |  |  |  |  |  |  |  |  |  |  | 
C[Si](C)(C)C(Sc1ccccc1)(Sc1ccccc1)Sc1ccccc1 | > 100 µM | > 100 |  | > 100 µM | > 100 | > 100 | > 100 |  | > 100 |  |  |  |  |  |  |  |  |  |  | 
C1C[OH+]CC[OH+]CCNCC[OH+]CC[OH+]CCN1.Cl.[Cl-].[Pt+4] |  | > 100 |  | > 100 µM | > 100 | > 100 | > 100 |  | > 100 |  |  |  | > 100 µM |  |  | > 100 | > 100 | > 100 | > 100 | > 100
CN1CCN(Cc2cc(NC(=O)c3cccc(C#Cc4cccc5[nH]nc(N)c45)c3)cc(C(F)(F)F)c2)CC1 | 2.92 µM | 3.02 |  | 4.42 µM | 3.22 |  | 2.94 | 1.5 | 4.62 |  |  |  | 1.66 µM |  |  | 2.12 | 1.81 |  | 1.56 | 1.89
Cn1cnc([N+](=O)[O-])c1Sc1nccc(=O)[nH]1 | > 100 µM | > 100 | > 100 |  | > 100 | > 100 | > 100 |  | > 100 |  |  |  |  |  |  |  |  |  |  | 
CCOC(=O)C(=O)Nc1ccccc1C(C)C | > 100 µM | > 100 | > 100 | > 100 µM | > 100 | > 100 | > 100 |  | > 100 |  |  |  |  |  |  |  |  |  |  | 
O=C(O[C@H]1CCN2C[C@H]3C[C@H](CN4C(=O)CCC[C@H]34)[C@@H]2C1)c1ccc(O)cc1 | > 100 µM | > 100 | > 100 |  | > 100 | > 100 | > 100 |  | > 100 |  |  | > 100 |  |  | > 100 |  |  |  |  | 
Cc1ccc(S(=O)(=O)Nc2ccc(-c3cc(-c4cccc(F)c4)c(C#N)c(N)n3)cc2)cc1 |  | 2.92 |  | 6.07 µM | 9.62 | 11.6 | 4.08 |  | 8.92 |  | 1.48 | 3.66 | 1.58 µM | 2.28 | 7.48 | 2.21 | 2.75 | 3.15 | 1.96 | 1.87
CCCCCCCCCCCCCB(O)O | > 100 µM and 37.6 µM | > 100 | > 100 | > 100 µM and 42.5 µM | > 100 | > 100 | > 100 |  |  |  |  |  | > 100 µM and 45.4 µM |  |  |  |  |  |  | 
COC(=O)C(/C(=N\NC(N)=S)C(=O)Nc1ccccc1[N+](=O)[O-])c1cnc2ccccc2n1 (configuration not stated) | > 100 µM | > 100 | > 100 | > 100 µM | > 100 | > 100 | > 100 |  | > 100 |  |  |  |  |  |  |  |  |  |  | 
C=CCN(N=O)C(=O)NCCCCC(NC(C)=O)C(=O)NCc1ccccc1 (configuration not stated) | > 100 µM | > 100 | > 100 | > 100 µM | > 100 | > 100 | > 100 |  | > 100 |  |  |  |  |  |  |  |  |  |  | 
O=C(/C=C/OC(=O)c1cccc(Cl)c1)c1ccc(Cl)cc1 | 73.5 µM | > 100 | > 100 |  | > 100 | > 100 | > 100 | 17.3 | > 100 | > 79 | > 48.8 | > 100 | 52.3 µM | 23.2 | > 70.4 | 30.5 | 38.1 | > 56.5 | 58.1 | 
Cc1ccccc1C1CC(c2ccccc2)=NO1 (configuration not stated) | > 100 µM | > 100 | > 100 | > 100 µM | > 100 | > 100 | > 100 |  | > 100 |  |  |  |  |  |  |  |  |  |  | 
C=C(CCCO)[C@@H]1CC[C@@](C)(O)[C@H]1C | > 100 µM | > 100 | > 100 |  | > 100 | > 100 | > 100 |  | > 100 |  |  |  |  |  |  |  |  |  |  | 
